Source: patent US7511068B2, “Mercaptoimidazoles as CCR2 receptor antagonists” (Janssen Pharmaceutica, N.V., priority 2003, dated 2009)

What was measured:
CCR2 receptor = molecular target: T1, CCR2 receptor (Homo sapiens, UniProt P41597); assay: Inhibition of MCP-1 induced Ca-flux in human THP-1 cells; type: cell-based; settings: inhibition of specific MCP-1 (10^-7 M hMCP-1) induced Ca2+ flux in human THP-1 cells; pIC50 = -log IC50 (molar)
T1 construct: host or cells: THP-1 human monocytic cell line
T1 sequence (P41597 1-360 isoform P41597-2): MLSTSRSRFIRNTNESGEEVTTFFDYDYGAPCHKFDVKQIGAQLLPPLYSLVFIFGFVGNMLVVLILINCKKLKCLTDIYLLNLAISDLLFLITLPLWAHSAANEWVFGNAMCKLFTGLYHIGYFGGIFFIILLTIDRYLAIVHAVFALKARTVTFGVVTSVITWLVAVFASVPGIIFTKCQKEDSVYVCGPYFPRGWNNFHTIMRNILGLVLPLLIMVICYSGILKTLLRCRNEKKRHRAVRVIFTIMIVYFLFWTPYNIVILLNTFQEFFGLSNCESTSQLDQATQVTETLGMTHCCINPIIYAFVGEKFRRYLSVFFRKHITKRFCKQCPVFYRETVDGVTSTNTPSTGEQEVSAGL
Protocol: C. Pharmacological Example Inhibition of MCP-1 Induced Ca-flux in Human THP-1 Cells
MCP-1 binding to the CCR2 receptor induces a rapid and transient intracellular release of Ca^2+ (secondary messenger) in several cell lines (Charo et al, PNAS 1994). Free Ca^2+ levels can be measured using a Ca^2+ sensitive dye. When the CCR2 receptor is blocked with a CCR2 receptor antagonist, the MCP-1 induced release of Ca^2+ is inhibited.
Human THP-1 cells (monocytic cell line, ATCC TIB-202) were cultured in RPMI 1640 medium supplemented with 10% fetal calf serum (FCS), 1% L-Glutamine, penicillin (50 U/ml) and streptomycin (50 μg/ml) (all GIBCO BRL, Gent). After centrifugation, cells were loaded for 30 minutes with the Ca^2+ sensitive fluorescent dye Fluo-3 AM (Molecular Probes, Leiden, Netherlands) (2 million cells/ml in RPMI medium containing 4 μM Fluo-3 AM, 20 mM HEPES, 0.1% Bovine Serum Albumin (BSA) and 5 mM probenecid). Excess dye was removed by 3-fold washing with buffer (5 mM HEPES, 140 mM NaCl, 1 mM MgCl2, 5 mM KCl, 10 mM glucose, 2.5 mM probenecid, 1.25 mM CaCl2, 0.1% BSA; all further incubations were done in this buffer). Cells were plated at a density of 150 000 cells/well in dark-wall 96-well plates (Costar, Cambridge, Mass.) and sedimented by centrifugation (1 minute). The cells were pre-incubated for 20 minutes with test compound. Then, 10^−7 M hMCP-1 (Bachem, Bubendorf, Switserland) was added. Changes in intracellular free Ca^2+ concentration were measured using the Fluorescent Imaging Plate Reader (FLIPR, Molecular Devices, Munchen, Germany). Fluorescence was recorded every second from 10 seconds before the addition of the MCP-1 till 2 minutes after the addition (first minute: 60 records with 1 second intervals, second minute 20 records with 3 second intervals).
The maximal fluorescence obtained during this time frame was used for further calculations.
Table 4 reports pIC50 values obtained in the above-described test for compounds of formula (I). pIC50 defines −log IC50 wherein IC50 is the molar concentration of the test compound which inhibits 50% of specific MCP-1 induced Ca^2+ flux.

Row | Compound | IC50 (CCR2 receptor) [nM] | melting point [°C]
1 | CCC(c1ccc(Cl)c(Cl)c1)n1c(S)nc(C(=O)OC(C)(C)C)c1C#N (centres unmarked) [Compound 78] | 813 | 172.7 to 175.2
2 | CCCC(c1ccc(Cl)c(Cl)c1)n1c(C(=O)OC)cnc1S (centres unmarked) [Compound 35] | 138 | –
3 | CCC(c1ccc(Cl)c(Cl)c1)n1c(C#N)c(C(=O)NC)[nH]c1=S (centres unmarked) [Compound 70] | 257 | –
4 | CCC(c1ccc(Cl)c(Cl)c1)n1c(S)nc(CO)c1C(=O)OC (centres unmarked) [Compound 85] | 153 | –
5 | CCC(c1ccc(Cl)c(Cl)c1)n1c(C(=O)NCCO)c(COC)[nH]c1=S (centres unmarked) [Compound 115] | 1200 | –
6 | CCC(c1ccc(Cl)c(Cl)c1)n1cc(C(=O)OC)nc1S (centres unmarked) [Compound 14] | 355 | –
7 | CC(c1ccc(Cl)c(Cl)c1)n1c(C(N)=O)c(C(N)=O)[nH]c1=S (centres unmarked) [Compound 98] | 2040 | –
8 | COC(=O)c1[nH]c(=S)n(C(c2ccc(Cl)c(Cl)c2)C2CCCCC2)c1C(=O)OC (centres unmarked) [Compound 73] | 440 | –
9 | CCC(c1ccc(Cl)c(Cl)c1)n1c(S)nc(COC)c1C(=O)OC (centres unmarked) [Compound 89] | 107 | –
10 | CCC(c1ccc(F)c(C(F)(F)F)c1)n1c(C(=O)OC)cnc1S (centres unmarked) [Compound 1] | 933 | –
11 | CCC(c1ccc(Cl)c(Cl)c1)n1c(S)nc(C(=O)NC)c1C(=O)NC (centres unmarked) [Compound 107] | 355 | –
12 | CCC(c1ccc(F)c(F)c1)n1c(C(=O)OC)cnc1S (centres unmarked) [Compound 21] | 1020 | –
13 | COCC(c1ccc(Cl)c(Cl)c1)n1c(C(N)=O)c[nH]c1=S (centres unmarked) [Compound 104] | 85.7 | –
14 | CCC(c1cc(Cl)cc(Cl)c1)n1c(C(=O)OC)c(C(=O)OC)[nH]c1=S (centres unmarked) [Compound 130] | 1660 | –
15 | CC(c1ccc(Cl)c(Cl)c1)n1cc(C(N)=O)[nH]c1=S (centres unmarked) [Compound 91] | 8130 | –
16 | CCC(c1ccc(F)c(F)c1)n1c(C(N)=O)cnc1S (centres unmarked) [Compound 9] | 465 | –
17 | COC(=O)c1[nH]c(=S)n(C(c2ccc(Cl)c(Cl)c2)c2ccc(Cl)c(Cl)c2)c1C(=O)OC [Compound 150] | 468 | –
18 | CCC(c1ccc(Cl)c(Cl)c1)n1c(C(N)=O)cnc1S (centres unmarked) [Compound 8] | 35 | –
19 | CCCCNC(=O)c1cnc(S)n1C(CC)c1ccc(F)c(F)c1 (centres unmarked) [Compound 44] | 3130 | –
20 | CCC(c1cc(F)c(F)c(F)c1)n1c(C(N)=O)c[nH]c1=S (centres unmarked) [Compound 143] | 166 | –
21 | COC(=O)c1[nH]c(=S)n(Cc2ccc(Cl)c(Cl)c2)c1C(=O)OC [Compound 47] | 35.5 | –
22 | CCC(c1ccc(Br)c(Br)c1)n1c(C(N)=O)c(C(N)=O)[nH]c1=S (centres unmarked) [Compound 57] | 168 | –
23 | CCC(c1cc(F)cc(F)c1)n1c(C(=O)OC)c(C(=O)OC)[nH]c1=S (centres unmarked) [Compound 124] | 64.6 | –
24 | CCC(c1ccc(Cl)c(Cl)c1)n1c(C(C)=O)c[nH]c1=S (centres unmarked) [Compound 81] | 132 | –
25 | CCC(c1ccc(F)c(F)c1)n1c(C(=O)NCC(C)C)cnc1S (centres unmarked) [Compound 45] | 2480 | –
